What all share (assay type): biochemical
Settings in all cases: Ki from IC50 by Cheng-Prusoff equation

Test [1] concerns the target catalytic domain of human Cathepsin B (Homo sapiens (Human), UniProt P07858). The test can be described thus: Enzymatic activity of the catalytic domain of human Cathepsin B (fluorogenic substrate Z-Arg-Arg-AMC). As to the method:
(§1) The enzyme is activated as follows:
25 μg of enzyme are diluted with acetate buffer to a concentration of 12.5 μg/ml. 1 part by volume of enzyme is admixed with 20 parts by volume of cysteine solution and diluted with the acetate/Hepes buffer to a concentration of 0.11 μg/ml and incubated at 37° C. for 5 minutes.
(§2) To measure the enzyme activity, 10 μl of enzyme solution are incubated with 10 μl of a 3% (v/v) aqueous dimethyl sulfoxide solution (reaction 1) for 10 minutes. To measure the enzyme inhibitor activity, 10 μl of enzyme solution are incubated with 10 μl of a 3% (v/v) aqueous dimethyl sulfoxide solution which contains the enzyme inhibitor (reaction 2).
(§3) Both in reaction 1 and in reaction 2, after addition of 10 μl of a 3% (v/v) aqueous dimethyl sulfoxide solution which contains 0.3 mmol/l of the substrate, the enzyme reaction is monitored by fluorescence spectroscopy (360 nm (excitation)/465 nm (emission)).
(§4) The enzyme activity is shown as fluorescence increase/minute.
The inhibitor action is calculated as the percentage inhibition by the following formula: inhibition=100−[(fluorescence increase/minute in reaction 2)/(fluorescence increase/minute in reaction 1)×100].
(§5) The IC50, which is the inhibitor concentration required for a 50% inhibition in the enzyme activity, is determined graphically by plotting the percentage inhibitions at different inhibitor concentrations.
The acetate buffer contains 0.1 mol/l of sodium acetate, 0.1 mol/l of sodium chloride and 0.001% Pluronic (Sigma, Deisenhofen, Germany) pH 4.5.
(§6) The cysteine solution contains 0.3 mol/l of cysteine in water. The acetate/Hepes buffer contains 0.15 mol/l of sodium acetate, 0.15 mol/l of Hepes, 0.3 mol/l of sodium chloride and 0.001% Pluronic (Sigma, Deisenhofen, Germany) pH 6.5.
The enzyme solution contains 0.11 μg/ml of the enzyme domain.
The substrate solution contains 0.3 mmol/l of the fluorogenic substrate […] (Bachem, Heidelberg, Germany).
(§7) Corresponding Ki values are obtained by applying the Cheng-Prusoff equation: Ki=Ki,app/(1+[S]/KM); where Ki,app=IC50
(§8) (Ki,app is the concentration of the competing substance which leads to 50% inhibition of the enzymatic activity at a substrate concentration [S])

For test [2], the target named is catalytic domain of human Cathepsin S (Homo sapiens (Human), UniProt P25774). The test can be described thus: Enzymatic activity of the catalytic domain of human Cathepsin S (fluorogenic substrate Z-Val-Val-Arg-AMC). As to the method:
as §1
5 parts by volume of enzyme are incubated with 20 parts by volume of acetate buffer and 50 parts by volume of cysteine solution at 37° C. for 5 minutes. After the activation of the enzyme, it is diluted with the Tris/HCl buffer to a concentration of 0.65 μg/ml. To measure the enzyme activity, 10 μl of enzyme solution are incubated with 10 μl of a 3% (v/v) aqueous dimethyl sulfoxide solution (reaction 1) for 10 minutes. To measure the enzyme inhibitor activity, 10 μl of enzyme solution are incubated with 10 μl of a 3% (v/v) aqueous dimethyl sulfoxide solution which contains the enzyme inhibitor (reaction 2). Both in reaction 1 and in reaction 2, after addition of 10 μl of a 1.5% (v/v) aqueous dimethyl sulfoxide solution which contains 0.15 mmol/l of the substrate, the enzyme reaction is monitored by fluorescence spectroscopy (360 nm (excitation)/465 nm (emission)).
as §4
(§9) The inhibitor action is calculated as the percentage inhibition by the following formula: % inhibition=100−[(fluorescence increase/minute in reaction 2)/(fluorescence increase/minute in reaction 1)×100].
as §5
The acetate buffer contains 0.05 mol/l of sodium acetate, 0.1 mol/l of sodium chloride and 0.001% Pluronic (Sigma, Deisenhofen, Germany) pH 5.5.
The cysteine solution contains 0.3 mol/l of cysteine in water. The Tris/HCl buffer contains 0.1 mol/l of Tris/HCl, 0.04 mol/l of EDTA and 0.001% Pluronic pH=7.5. The enzyme solution contains 0.65 μg/ml of the enzyme domain.
The substrate solution contains 0.15 mmol/l of the fluorogenic substrate Z-Val-Val-Arg-AMC (Bachem, Heidelberg, Germany).
as §7, §8

Test [3] deals with catalytic domain of human Cathepsin K (Homo sapiens (Human), UniProt P43235). Nature of the test: Enzymatic activity of the catalytic domain of human Cathepsin K (fluorogenic substrate Boc-Ala-Gly-Pro-Arg-AMC). As to the method: as §1
1 part by volume of enzyme is admixed with 4 parts by volume of cysteine solution and diluted with the acetate/Hepes buffer to a concentration of 0.22 μg/ml.
as §2, §3, §4, §9, §5, §6
The enzyme solution contains 0.22 μg/ml of the enzyme domain.
The substrate solution contains 0.3 mmol/l of the fluorogenic substrate Boc-Ala-Gly-Pro-Arg-AMC (Bachem, Heidelberg, Germany).
as §7, §8

SMILES strings stand for the structures. Where only a bound is given, the exact number is not on record here.

catalytic domain of human Cathepsin S, sequence (P25774 115-331): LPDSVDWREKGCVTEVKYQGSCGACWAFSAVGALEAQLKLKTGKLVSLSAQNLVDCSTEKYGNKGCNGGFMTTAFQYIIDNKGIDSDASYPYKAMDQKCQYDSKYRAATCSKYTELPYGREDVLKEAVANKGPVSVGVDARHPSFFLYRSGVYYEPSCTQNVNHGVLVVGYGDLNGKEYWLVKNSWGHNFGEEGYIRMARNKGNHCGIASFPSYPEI
catalytic domain of human Cathepsin K, sequence (P43235 115-329): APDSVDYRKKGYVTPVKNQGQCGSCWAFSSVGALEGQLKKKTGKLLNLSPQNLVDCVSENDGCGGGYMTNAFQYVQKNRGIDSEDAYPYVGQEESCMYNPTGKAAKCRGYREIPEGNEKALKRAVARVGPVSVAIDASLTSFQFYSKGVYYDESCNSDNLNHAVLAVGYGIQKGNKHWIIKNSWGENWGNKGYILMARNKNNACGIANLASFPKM

On to `CC(F)(F)C[C@H](NC(=O)N1CCC2(CCCC2)CC1)C(=O)NC1(C#N)CC1` [Example 36], for which the Ki in test [1] is 44 nM; in test [2], 2 nM; in test [3], 3 nM.

Take `CCCC(F)(F)C[C@H](NC(=O)N1CCC2(CC1)CCN(c1ccc(OC)cc1)C2)C(=O)NC1(C#N)CC1` [Example 91]: the figures for the Ki in test [1], in test [2] and in test [3] were 140 nM, 2 nM and 43 nM, respectively.

With `CC(C)C[C@H](NC(=O)C1CCC2(CC1)OCCO2)C(=O)NC1(C#N)CC1` [Example 35, N—[(S)-1-(1-cyanocyclopropylcarbamoyl)-3-methylbutyl]-1,4-dioxaspiro[4.5]decane-8-carboxamide], the Ki in test [1] was greater than 7100 nM; in test [2], 150 nM; in test [3], 31 nM.

For `CN1CCC(C#N)(NC(=O)[C@H](CC(C)(F)F)NC(=O)N2CCC3(CC2)CC3)CC1` [Example 103], the figures for the Ki in test [1], in test [2] and in test [3] were 99 nM, 27 nM and 84 nM, respectively.

`CC(F)(F)C[C@H](NC(=O)N1CCC2(CCCCC2)CC1)C(=O)NC1(C#N)CC1` [Example 9, N—[(S)-1-(1-cyanocyclopropylcarbamoyl)-3,3-difluorobutyl]-3-azaspiro[5.5]undecane-3-carboxamide]: the values for the Ki in test [1], in test [2] and in test [3] were 46 nM, 3.2 nM and 1.8 nM, respectively.

On to `CCCC(F)(F)C[C@H](NC(=O)N1CCC2(CC1)CC2)C(=O)NC1(C#N)CC1` [Example 102], for which the Ki in test [1] turned out to be 62 nM; in test [2], 0.5 nM; in test [3] it was 33 nM.

`CC(F)(F)C[C@H](NC(=O)N1CCC2(CC1)OCc1ccccc12)C(=O)NC1(C#N)CC1` [Example 78]: the Ki is 530 nM in test [1], 19 nM in test [2] and 38 nM in test [3].

As for `N#CC1(NC(=O)[C@H](CC(F)(F)Cc2ccccc2)NC(=O)N2CCC3(CC2)CCN(C2CC2)CC3)CC1` [Example 97], the values for the Ki in test [1], in test [2] and in test [3] were 100 nM, 1 nM and 400 nM, respectively.

Take `N#CC1(NC(=O)[C@H](CC(F)(F)Cc2ccccc2)NC(=O)N2CCC3(CC2)CC3)CC1` [Example 70, N—[(S)-1-(1-cyanocyclopropylcarbamoyl)-3,3-difluoro-4-phenylbutyl]-6-azaspiro[2.5]octane-6-carboxamide]: the Ki in test [1] worked out at 110 nM; in test [2], 0.3 nM; in test [3], 910 nM.

With `CC(F)(F)C[C@H](NC(=O)N1CCC2(CCCCC2)C1)C(=O)NC1(C#N)CC1` [Example 77], the Ki in test [1] came out at 220 nM; in test [2], 7 nM; in test [3], 20 nM.

In the case of `CC(F)(F)C[C@H](NC(=O)N1CCC2(CC1)CC(=O)N(CC1CC1)C2)C(=O)NC1(C#N)CC1` [Example 88], the Ki in test [1] is 310 nM; in test [2], 9 nM; in test [3] it was 15 nM.

Regarding `CC(F)(F)C[C@H](NC(=O)N1CCC2(CC1)CCN(C1CC1)CC2)C(=O)NC1(C#N)CC1` [Example 56], the Ki in test [1] was 210 nM; in test [2] it was 7.2 nM; in test [3], 7.5 nM.

As for `CC(F)(F)C[C@H](NS(=O)(=O)N1CCC2(CCCC2)CC1)C(=O)NC1(C#N)CC1` [Example 74, N-(1-Cyanocyclopropyl)-(S)-2-(8-azaspiro[4.5]decane-8-sulfonylamino)-4,4-difluoropentamide], the results for the Ki in test [1], in test [2] and in test [3] were greater than 7100 nM, 16 nM and 150 nM, respectively.

In the case of `CC(F)(F)C[C@H](NC(=O)N1CCC2(CC1)CC2)C(=O)NC1(C#N)CC1` [Example 63, N—[(S)-1-(1-cyanocyclopropylcarbamoyl)-3,3-difluorobutyl]-6-azaspiro[2.5]octane-6-carboxamide], the Ki in test [1] came to 260 nM; in test [2], 5 nM; in test [3], 22 nM.

As for `CC(F)(F)C[C@H](NC(=O)N1CC2(CCN(C3CC3)CC2)C1)C(=O)NC1(C#N)CC1` [Example 83], the Ki in test [1] worked out at 2300 nM; in test [2], 8 nM; in test [3], 28 nM.

Regarding `CC(F)(F)C[C@H](NC(=O)N1CCOC12CCCCC2)C(=O)NC1(C#N)CC1` [Example 80], the figures for the Ki in test [1], in test [2] and in test [3] were 3900 nM, 9 nM and 36 nM, respectively.

Consider `CC(F)(F)C[C@H](NC(=O)N1CCC2(CC1)OCCO2)C(=O)NC1(C#N)CC1` [Example 37], for which the Ki in test [1] stood at 560 nM; in test [2] it was 13 nM; in test [3] it was 21 nM.

For the compound `CC(F)(F)C[C@H](NC(=O)N1CCC2(CC1)NCC(C)(C)CO2)C(=O)NC1(C#N)CC1` [Example 45], the Ki in test [1] came to 1200 nM; in test [2] it was 24 nM; in test [3], 21 nM.

As for `N#CC1(NC(=O)C2(NC(=O)N3CCC4(CCCC4)CC3)CCCCC2)CC1` [Example 53], the Ki in test [1] came out at 1500 nM; in test [2], 53 nM; in test [3], 4.5 nM.

On to `CC(F)(F)C[C@H](NC(=O)N1CCC2(CC1)C(=O)NCN2c1ccccc1)C(=O)NC1(C#N)CC1` [Example 42], for which the Ki was 4500 nM in test [1], 11 nM in test [2] and 32 nM in test [3].

`CC(F)(F)C[C@H](NC(=O)N1CCC2(CC1)CCN(Cc1ccccc1)C2=O)C(=O)NC1(C#N)CC1` [Example 49]: the figures for the Ki in test [1], in test [2] and in test [3] were 2200 nM, 16 nM and 52 nM, respectively.

Turning to `CC(F)(F)C[C@H](NC(=O)N1CCC2(CC1)CCC(C)(C)O2)C(=O)NC1(C#N)CC1` [Example 76], the results for the Ki in test [1], in test [2] and in test [3] were 930 nM, 22 nM and 47 nM, respectively.

With `CCCC(F)(F)C[C@H](NC(=O)N1CCC2(CC1)CCN(C1CC1)CC2)C(=O)NC1(C#N)CC1` [Example 94], the Ki is 84 nM in test [1], 2 nM in test [2] and 24 nM in test [3].

For `CC(F)(F)C[C@H](NC(=O)N1CCC2(CCCc3ccccc32)C1)C(=O)NC1(C#N)CC1` (stereo partly drawn) [Example 79], the Ki was found to be 620 nM in test [1], 9 nM in test [2] and 16 nM in test [3].

These data come from patent publication US8609681B2, “Spirocyclic nitriles as protease inhibitors” (Sanofi, priority 2006, dated 2013).
